In ChEMBL document CHEMBL1128828, “Convergent approach to water soluble camptothecin derivatives” (1995):

Key:
Type in all cases: functional
Settings in all cases: route intravenous
[1] = test system: Mus musculus; test: Inhibitory effect on the growth of P388/CPT tumor cell line transplanted subcutaneously into mice at dose of 2 mg/kg/day x 5 administered intravenously
[2] = test system: Mus musculus; test: Inhibitory effect on the growth of Colon 26 tumor cell line transplanted subcutaneously into mice at dose of 4 mg/kg/day x 5 administered intravenously
[3] = test system: Mus musculus; test: Inhibitory effect on the growth of P388/CPT tumor cell line transplanted subcutaneously into mice at dose of 4 mg/kg/day x 5 administered intravenously
[4] = test system: Mus musculus; test: Inhibitory effect on the growth of Colon 26 tumor cell line transplanted subcutaneously into mice at dose of 2 mg/kg/day x 5 administered intravenously

Row | Compound | T/C [1] [%] | T/C [2] [%] | T/C [3] [%] | T/C [4] [%]
1 | CCC1(O)C(=O)OCc2c1cc1n(c2=O)Cc2c-1nc1cc3c(cc1c2CCN)OCO3.O=C(O)C(F)(F)F (stereo not drawn) | 65 | 49 | 36 | 55
2 | CC[C@@]1(O)C(=O)OCc2c1cc1n(c2=O)Cc2cc3c(CN(C)C)c(O)ccc3nc2-1 [TOPOTECAN] | 59 | 51 | 46 | 60
